Test results reported in patent US20100215759A1 (priority 2009, published 2010).

Assays:
[1] = system: old DBA/2J mice; assay: Reduction of intraocular pressure (IOP) after application to the eye, TONOLab tonometer; type: in vivo; conditions: for Intraocular Pressure Decrease: versus basal IOP
Description: The main risk factor in the glaucoma is represented by the high intraocular pressure (IOP). See for instance: Libby R. T. et al., Vis Neurosci. 2005 Sep.-Oct., 22(5):637-48 and Tomida I. et al., Br. J. Opthalmol. 2004 May, 88(5):708-13.
By using the animal model of old DBA/2J mice (see above) it has been evaluated the efficacy of the compound obtained in example 3.1 in reducing the IOP. As said, this compound has a good affinity towards the CB1 receptors in vitro (example 4) and a CB1 agonist action in vivo (example 5). The intraocular pressure has been determined by a TONOLab Tonometer (Tiolat Oy), as reported by M. E. Pease et al. in J. Glaucoma, 2006 December, 15(6):512-519. The compound was dispersed in the commercial emulsion Tocrisolve™, (Tocris), at a concentration of […] and applied to the eye of old DBA/2J mice (8-10 month age; basal IOP comprised between 19.0 and 22.5 mmHg). The applied emulsion volumes were such that the compound doses resulted, respectively, of 100 μg or 50 μg. WIN 55212-2 was dispersed in Tocrisolve™at the concentration of 5 mg/ml and was the reference cannabinoidergic compound. The determination of the ocular pressure was carried out every 30 minutes up to two hours starting from the administration. The obtained results (average of 6 measurements at each time for experimental groups of 8-10 animals for group/dose) are reported in Table 3. IOP decrease was expressed in percent with respect to the basal value.

[2] = system: mouse deferent vessel (vas deferens); assay: Ex-vivo model: electrically induced contractions of the isolated deferent vessel (vas deferens); set-up: species or system albino CD1 mice; conditions: for Effect on the curve % of inhibition of the contractions/logarithm of the WIN 55212-2 concentration: concentrations lower than or equal to 1×10^−5 M; for Inhibition of the contractions induced by the electric stimulus: concentrations lower than or equal to 1×10^−6 M
Description: The use of the isolated deferent vessel organ, as a highly sensitive basic system in an ex-vivo model for evaluating the activity of agonist CB1 compounds, has been described by Pertwee et al. in Br. J. Pharmacol., 105:980-4, 1992. This model has been used also to evaluate the properties of antagonist CB1 compounds and to distinguish antagonist CB1 derivatives from inverse agonist CB1 compounds (Rinaldi-Carmona et al., FEBS Lett., 350:240-4, 1994; Pertwee et al., Eur. J. Pharmacol., 456:99-106, 2002). […] This effect is correlated to the action on the prejunctional neuronal CB1 receptors with the consequent release inhibition, induced by electric stimuli, of contractile neurotransmitters (noradrenaline and ATP) (Schlicker and Kathmann, Trends Pharmacol. Sci., 22:565-72, 2001). The inhibition of the contractions induced by the electric stimulus on the deferent vessel in the presence of agonist (or partial agonist) CB1 compounds are expressed as % of contraction inhibition. Said % contraction inhibition is calculated by the ratio between the contraction amplitude determined in the presence of a given concentration of the compound and that detected in its absence (basal value). The curve of the “% of contraction inhibition” as a function of the logarithm of the concentration of agonist (or partial agonist) CB1 compounds, is sigmoidal. The use of the model for the evaluation of antagonist CB1 compounds is based on the evaluation of their efficacy in inhibiting the action of the deferent vessel of agonist (or partial agonist) CB1 compounds. The inhibition is expressed by a shifting towards the right of the curves % of inhibition of contractions/logarithm of the concentration of the agonist CB1 compound, with increasing the concentration of the antagonist CB1 compound.
As reported in the literature, the experimentation has been carried out by using albino CD1 mice weighing 30-40 grams. The mice deferent vessel was recovered and transferred into an instrument for separated organs supplied by the Firm Ugo Basile (Comerio, Italy). The initial tension was of 0.5 g. The procedure adopted is reported in Pertwee et al. in Br. J. Pharmacol., 110:1483-1490, 1993. In particular the procedure and instruments as described by S. Ruiu et al. in J.P.E.T., Vol. 306, 2003, 363-370, have been used.
In a subsequent experiment it was shown that the compound activity was antagonized by the antagonist CB1 compound N-piperidinyl-[8-chloro-1-(2,4-dichlorophenyl)-1,4,5,6-tetrahydrobenzo[6,7]cyclohepta[1,2-c]pyrazol-3-carboxamide], described by S. Ruiu et al. in J.P.E.T., Vol. 306, 2003, 363-370. The experiment was carried out by adding the antagonist (concentration in bath 1 nM) 20 minutes before the first addition of the compound of the invention.

[3] = 50 μg to the eye in Tocrisolve, 30 minutes
[4] = 50 μg to the eye in Tocrisolve, 60 minutes
[5] = 50 μg to the eye in Tocrisolve, 90 minutes
[6] = 50 μg to the eye in Tocrisolve, 120 minutes
[7] = 100 μg to the eye in Tocrisolve, 30 minutes
[8] = 100 μg to the eye in Tocrisolve, 60 minutes
[9] = 100 μg to the eye in Tocrisolve, 90 minutes
[10] = 100 μg to the eye in Tocrisolve, 120 minutes

Row | Structure (SMILES) | Intraocular Pressure Decrease [1, 3] [%] | Intraocular Pressure Decrease [1, 4] [%] | Intraocular Pressure Decrease [1, 5] [%] | Intraocular Pressure Decrease [1, 6] [%] | Intraocular Pressure Decrease [1, 7] [%] | Intraocular Pressure Decrease [1, 8] [%] | Intraocular Pressure Decrease [1, 9] [%] | Intraocular Pressure Decrease [1, 10] [%] | Reduction of intraocular pressure ([1]; dose 50 μg) | Reduction of intraocular pressure ([1]; dose 100 μg) | Effect on the curve % of inhibition of the contractions/logarithm of the WIN 55212-2 concentration [2] | Inhibition of the contractions induced by the electric stimulus [2] | Antagonism of the compound activity by a CB1 antagonist ([2]; antagonist N-piperidinyl-[8-chloro-1-(2,4-dichlorophenyl)-1,4,5,6-tetrahydrobenzo[6,7]cyclohepta[1,2-c]pyrazol-3-carboxamide] 1 nM in bath, added 20 minutes before) | Functional character at CB1 ([2]; vas deferens model)
1 | CCOC(=O)c1nn(-c2ccc(S(N)(=O)=O)cc2)c2c1CCc1sccc1-2 [Compound (XA), 1-(4′-sulphonamidophenyl)-4,5-dihydro-1H-thieno[2,3-g]indazol-3-ethyl carboxylate] | −0.3 | −0.2 | 0.0 | −0.1 | 0.0 | −0.2 | −0.1 | 0.1 | not able to significantly reduce the intraocular pressure | not able to significantly reduce the intraocular pressure | did not significantly modify the slope of the curve | did not significantly inhibit the contractions |  | 
2 | NC(=O)c1nn(-c2ccc(S(N)(=O)=O)cc2)c2c1CCc1sccc1-2 [Compound (XB), 1-(4′-sulphonamidophenyl)-4,5-dihydro-1H-thieno[2,3-g]indazol-3-carboxamide] | −0.2 | −0.1 | 0.0 | −0.1 | −0.1 | 0.4 | −0.3 | 0.0 | not able to significantly reduce the intraocular pressure | not able to significantly reduce the intraocular pressure | did not significantly modify the slope of the curve | did not significantly inhibit the contractions |  | 
3 | Cc1ccc(Cn2nc(C(=O)NCC3CCC4CC3C4(C)C)c3c2-c2sc(C)cc2C3)cc1 (stereo not drawn) [Example 3.1, N-myrtanyl-6-methyl-1-(4′-methylbenzyl)-1,4-dihydrothieno[3′,2′:4,5]cyclopenta[1,2-c]pyrazol-3-carboxamide] | 15.9 | 15.0 | 12.6 | 11.7 | 23.9 | 22.8 | 19.6 | 21.7 | more effective in reducing IOP than the reference compound | as effective to reduce eye pressure as the reference compound WIN 55212-2 |  |  | antagonized | CB1 agonist
